Structures are written as SMILES. Values after ≈ are worked out from the molar mass of the structure shown.

Experiment in all cases: Microbiological minimum inhibitory concentration test (agar dilution)
Common to all, as to assay type: cell-based
For orientation: In agar dilution the substance is mixed into plates at graded concentrations.

Test [1] has as its system Trichophyton mentagrophytes ATCC 22839. The conditions noted are these: ATCC22839, Mycophil Agar with low pH, 32° C., growth read at 24 and 48 hours and 7 days, read-out: MIC (minimal inhibitory concentration). How it is done: (§1) The antifungal activity of the polyfluorinated substituted quinoline mono- and dioxo compounds was determined according to the following procedure:
(§2) MICROBIOLOGICAL MINIMUM INHIBITORY CONCENTRATION TEST
Trichophyton mentagrophytes ATCC 22839
(§3) Mycophil Agar with low pH
(§4) A 0.5 mg/ml stock solution of each compound was volumetrically prepared in an appropriate solvent From this stock, 1:2 serial dilutions were prepared in sterile distilled water. Two ml aliquots of the stock and serial dilutions were added to tubes containing 18 ml of mycophil agar (46°-50° C.). Mixtures were poured into square 100×15 mm petri dishes and allowed to solidify.
(§5) All test organisms, except Candida albicans were harvested from six day mycophil agar slants. Candida albicans was diluted from a frozen stock culture. Inocula were diluted with sterile saline to contain approximately 1×10^8 CFUs per ml. Plate counts were performed on 1 ml of all inocula.
(§6) Each plate and appropriate solvent and unadulterated agar growth control was inoculated in duplicate with the inocula prepared above using a Steer's Replicator method.
(§7) Plates were then incubated at 32° C. Observations for growth were made at 24 and 48 hours and 7 days.
(§8) These MIC data are found in Table I.

Test [2] deals with Candida albicans ATCC 10231. The conditions noted are these: ATCC10231, Mycophil Agar with low pH, 32° C., growth read at 24 and 48 hours and 7 days, read-out: MIC (minimal inhibitory concentration). How it is done: as §1, §2
Candida albicans ATCC 10231
as §3, §4, §5, §6, §7, §8

Test [3] deals with Trichophyton rubrum ATCC 10218. Conditions: ATCC10218, Mycophil Agar with low pH, 32° C., growth read at 24 and 48 hours and 7 days, read-out: MIC (minimal inhibitory concentration). The protocol:
as §1, §2
Trichophyton rubrum ATCC 10218
as §3, §4, §5, §6, §7, §8

In test [4] the test system is Microsporum gypseum ATCC 14683. The conditions noted are these: Nannizzia gypsea, ATCC14683, Mycophil Agar with low pH, 32° C., growth read at 24 and 48 hours and 7 days, read-out: MIC (minimal inhibitory concentration). How it is done: as §1, §2
Microsporum gypseum ATCC 14683
as §3, §4, §5, §6, §7, §8

The test system of test [5] is Epidermophyton floccosum ATCC 15693. Conditions: ATCC15693, Mycophil Agar with low pH, 32° C., growth read at 24 and 48 hours and 7 days, read-out: MIC (minimal inhibitory concentration). The protocol:
as §1, §2
Epidermophyton floccosum ATCC 15693
as §3, §4, §5, §6, §7, §8

Test [6] has as its system Microsporum canis JJP #143. The conditions noted are these: Mycophil Agar with low pH, 32° C., growth read at 24 and 48 hours and 7 days, read-out: MIC (minimal inhibitory concentration). The protocol:
as §1, §2
Microsporum canis JJP #143
as §3, §4, §5, §6, §7, §8

`Cn1c(=O)c2cc3c(F)c(F)c(F)c(F)c3nc2n(C)c1=O` [I, 5,6,7,8-Tetrafluoro-1,3-dimethylpyrimidinol[6,5-b]quinolin-2,4-dione]: the MIC worked out at 25 µg/mL (≈ 79.8 µM) in test [1]; 50 µg/mL (≈ 160 µM) in test [2]; 1.6 µg/mL (≈ 5.11 µM) in test [3]; 4.6 µg/mL (≈ 14.7 µM) in test [4]; 0.39 µg/mL (≈ 1.25 µM) in test [5]; 25 µg/mL (≈ 79.8 µM) in test [6].
As to `CC1(C)CC(=O)c2cc3c(F)c(F)c(F)c(F)c3nc2C1` [II, 5,6,7,8-Tetrafluoro-2,2-dimethylbenzo[2,1-b]quinolin-4-one], the MIC in test [1] came to 6.2 µg/mL (≈ 20.9 µM); in test [2], 50 µg/mL (≈ 168 µM); in test [3], 6.2 µg/mL (≈ 20.9 µM); in test [4], 9.4 µg/mL (≈ 31.6 µM); in test [5] it was 1.5 µg/mL (≈ 5.05 µM); in test [6] it was 25 µg/mL (≈ 84.1 µM).

(Values after patent publication US4656274A, “Polyfluorinated substituted tricyclic quinoline mono and dioxo antifungal agents and process for their preparation” (Ortho Pharmaceutical Corporation, priority 1985, dated 1987).)
